We go through 2 molecules from paper PMC12655529, “Serendipitous Hinge Modulation Hypothetically Reprograms Caerin 1.1-LC Antibacterial Mechanism and Gram-Negative Selectivity” (Pharmaceutics, 2025).

By IC50 is commonly meant the concentration needed to halve the response being measured.

The test system of series [1] is Escherichia coli ATCC 8739. The series is classed as cell-based.
For another series, the system named is E. coli ATCC BAA-2340. The series is classed as cell-based, Escherichia coli.
For the next series, the system named is E. coli NCTC 13846. The series is classed as cell-based, Escherichia coli.
In series [2] the test system is Klebsiella pneumoniae ATCC 43816. The series is classed as cell-based.
Procedure: (§1) The antimicrobial activities of the peptides were evaluated by determining their minimal inhibitory concentration (MIC) and minimal bactericidal concentration (MBC) values following reported protocols [20]. The tested microorganisms included seven Gram-negative bacterial strains (Escherichia coli ATCC 8739, E. coli ATCC-BAA 2340, E. coli NCTC 13846, Klebsiella pneumoniae ATCC 43816, K. pneumoniae ATCC BAA-2342, Pseudomonas aeruginosa ATCC 9027, Acinetobacter baumannii ATCC BAA-747), three Gram-positive bacterial strains (Staphylococcus aureus ATCC 6538, Enterococcus faecalis NCTC 12697, MRSA NCTC 12493, and the fungal strain Candida albicans ATCC 10231. For the assay, each bacterial strain was cultured overnight at 37 °C in 100 mL of medium in a flask. The cultures were then subcultured to reach the logarithmic growth phase and diluted to 5 × 10^5 CFU/mL. Peptide samples were serially diluted two-fold in microplates, with concentrations ranging from 128 μM to 1 μM. The diluted bacterial suspensions were mixed with the peptide solutions and incubated overnight at 37 °C. The MIC values were determined by measuring the absorbance of each well using a Synergy HT plate reader (Agilent, Cheshire, UK). For MBC determination, aliquots from wells showing no visible growth were inoculated onto agar plates to assess bacterial viability. Each experiment was repeated independently three times and conducted in three independent replicates.
The test system of series [3] is K. pneumoniae ATCC BAA-2342. The series is classed as cell-based, Klebsiella pneumoniae.
The subject of series [4] is Pseudomonas aeruginosa ATCC 9027. The series is classed as cell-based.
Series [5] relates to Acinetobacter baumannii ATCC BAA-747. In kind it is cell-based.
Procedure: as §1
Series [6] deals with Staphylococcus aureus ATCC 6538. The series is classed as cell-based.
Series [7] concerns Enterococcus faecalis NCTC 12697. In kind it is cell-based.
Procedure: as §1
The next series relates to MRSA NCTC 12493. The series is classed as cell-based, Staphylococcus aureus.
For a further series, the system named is horse red blood cells. The series is described as follows: Haemolysis assay. The following applies: concentration inducing 10% haemolysis of horse erythrocytes; 4% (v/v) in PBS, 2 h, 37 °C, absorbance 570 nm; no haemolysis at maximum testing concentration (128 μM) recorded as 256 μM. In kind it is cell-based. The essentials:
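Horse erythrocytes, PBS-washed, at 4% (v/v) in PBS were exposed to peptide over a concentration range for 2 h at 37 °C. Supernatant absorbance at 570 nm was read after centrifugation. Haemolysis % was normalised between PBS blank (0%) and 0.1% Triton X-100 (100%).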

The next series deals with Gram-negative bacteria. The series is described as follows: Geometric mean MIC and therapeutic index, Gram-negative. In kind it is cell-based. The following applies: geometric mean of MICs.
A further series concerns Gram-positive bacteria. The series is described as follows: Geometric mean MIC and therapeutic index, Gram-positive. The series is classed as cell-based. The following applies: geometric mean of MICs.
For series [8], the system named is HEK 293 human embryonic kidney cells. The series is classed as cell-based. The following applies: MTT, peptide 128 to 1 μM, absorbance 570 nm; triplicate, three independent repeats; NI = no inhibition activity; read-out: IC50, HEK 293. As for the experimental part:
The peptide’s cytotoxicity against normal cell lines was detected by the MTT assay. Following resuscitation from cryopreservation (−80 °C), the cell line underwent multiple passages to ensure viability and adaptation. Cells were then seeded into 96-well plates and maintained at 37 °C in a 5% CO2 humidified atmosphere for 24 h to achieve proper adherence. After incubation, cells were serum-starved for 4 h using foetal bovine serum (FBS)-free medium (ThermoFisher, Waltham, MA, USA) to synchronise cell cycle progression. Peptide solutions were prepared at concentrations ranging from 128 μM to 1 μM (serial two-fold dilutions) and applied to the cells. Following peptide treatment, 10 μL of MTT (3-(4,5-dimethylthiazol-2-yl)-2,5-diphenyltetrazolium bromide) solution (5 mg/mL in PBS) was added to each well and incubated for 2 h at 37 °C. The medium was then carefully aspirated, and 100 μL of DMSO was added to dissolve the formazan crystals. Absorbance was measured at 570 nm using a microplate reader (Agilent, Cheshire, UK), with a reference wavelength of 630 nm to account for background interference. Experiments were conducted in triplicate and repeated three independent times.

For the next series, the system named is E. coli (ATCC-BAA 2340). In kind it is cell-based, Escherichia coli. The essentials: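 E. coli MIC by broth microdilution, determined after bacteria were pre-exposed to media with 150 mM NaCl, 4.5 mM KCl, 2 mM CaCl2, 1 mM MgCl2, 8 µM ZnCl2, 6 µM NH4Cl, 4 µM FeCl3, or 10% FBS. Three independent experiments, each in triplicate.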
Series [9] concerns TNF-α secretion of LPS-stimulated RAW 264.7 cells. The series is described as follows: LPS neutralisation assay (TNF-α ELISA). The series is classed as cell-based, murine. The following applies: RAW 264.7, 100 ng/mL LPS, 24 h, peptide and hydrocortisone at the same concentration (hydrocortisone 10 μg/mL), LPS alone approximately 100 ng/mL. As for the experimental part:
Murine macrophage RAW 264.7 cells were cultured in 6-well plates at a density of 5 × 10^5 cells per well and allowed to adhere for 24 h at 37 °C in a 5% CO2 humidified incubator. Cells were then stimulated with 100 ng/mL LPS in the presence or absence of test peptides at varying concentrations (typically 1–100 μM). Hydrocortisone (10 μg/mL) served as the positive control for anti-inflammatory activity. After 24 h of incubation, cell culture supernatants were collected and centrifuged at 300× g for 10 min to remove cellular debris. Tumour necrosis factor-alpha (TNF-α) secretion was quantified using a mouse TNF-α ELISA Development Kit (ThermoFisher Scientific, Waltham, MA, USA) according to the manufacturer’s protocol.
On the technique in general: In an ELISA, binding on a coated surface is turned into a signal by an enzyme label.

Where [10] appears, read: first value of MIC/MBC cell, 5 × 10^5 CFU/mL, overnight 37 °C, absorbance.
Where [11] appears, read: second value of MIC/MBC cell, agar plating.

Values after ≈ are worked out from the molar mass of the structure shown. Square brackets hold non-standard residues; d marks the D form. Peptide text beside a SMILES is read from it. Where only a bound is given, the exact number is not on record here.

`CC[C@H](C)[C@H](NC(=O)[C@H](CCCCN)NC(=O)[C@@H]1CCCN1C(=O)[C@H](NC(=O)[C@H](NC(=O)[C@H](Cc1c[nH]cn1)NC(=O)[C@@H]1CCCN1C(=O)[C@@H](NC(=O)[C@@H](NC(=O)[C@H](CCCCN)NC(=O)[C@H](CCCCN)NC(=O)[C@H](CC(C)C)NC(=O)[C@H](CO)NC(=O)[C@H](CCCCN)NC(=O)[C@H](CC(C)C)NC(=O)[C@@H](NC(=O)[C@H](CO)NC(=O)[C@H](CC(C)C)NC(=O)[C@H](CC(C)C)NC(=O)CN)C(C)C)[C@@H](C)CC)C(C)C)C(C)C)C(C)C)C(=O)N[C@@H](C)C(=O)N[C@@H](CCC(=O)O)C(=O)N[C@@H](CCCCN)C(=O)N[C@@H](CC(C)C)C(N)=O` [Caerin 1.1-LC 7.11.19K.V(D)V(D)] (H-GLLSVLKSLKKIVPH[dV][dV]PKIAEKL-NH2): in series [1] (ATCC 8739), the “MBC, E. coli (ATCC 8739)” value came out at 4 µM (≈ 10.4 µg/mL). The “MIC, E. coli (ATCC 8739)” value in [1] (first value of MIC/MBC cell, 5 × 10^5 CFU/mL, peptide 128 to 1 μM two-fold, overnight 37 °C, absorbance, repeated three times) is on record as 2 µM (≈ 5.22 µg/mL). In addition, in the series on E. coli ATCC BAA-2340, the MBC, E. coli (ATCC BAA-2340) was determined as 4 µM (≈ 10.4 µg/mL) and the MIC, E. coli (ATCC BAA-2340) was 4 µM (≈ 10.4 µg/mL). In the series with E. coli NCTC 13846, this molecule yielded an MBC, E. coli (NCTC 13846) of 8 µM (≈ 20.9 µg/mL) and an MIC, E. coli (NCTC 13846) of 8 µM (≈ 20.9 µg/mL). In addition, the “MIC, K. pneumoniae (ATCC 43816)” value in [2] (setting [10]) was 64 µM (≈ 167 µg/mL). The “MBC, K. pneumoniae (ATCC 43816)” value in series [2] (setting [11]) came to 128 µM (≈ 334 µg/mL). For the same molecule, in series [3], the “MBC, K. pneumoniae (ATCC BAA-2342)” value is 32 µM (≈ 83.5 µg/mL) and the “MIC, K. pneumoniae (ATCC BAA-2342)” value is listed as 16 µM (≈ 41.7 µg/mL). Also, in [4], the “MBC, P. aeruginosa (ATCC 9027)” value is recorded as 4/4 µM and the “MIC, P. aeruginosa (ATCC 9027)” value is listed as 4/4 µM. For the same molecule, the “MIC, A. baumannii (ATCC BAA-747)” value in series [5] (setting [10]) was determined as 32 µM (≈ 83.5 µg/mL). For the same molecule, the “MBC, A. baumannii (ATCC BAA-747)” value in series [5] (setting [11]) is recorded as 128 µM (≈ 334 µg/mL). This molecule also came in with an MIC, S. aureus (ATCC 6538) in series [6] (setting [10]) of 128 µM (≈ 334 µg/mL). The MBC, S. aureus (ATCC 6538) in [6] (setting [11]) came to 128 µM (≈ 334 µg/mL). For the same molecule, the “MIC, E. faecalis (NCTC 12697)” value in [7] (setting [10]) is more than 128 µM. Further, in [7] (setting [11]), the “MBC, E. faecalis (NCTC 12697)” value is listed as more than 128 µM. For the same molecule, in the series on MRSA NCTC 12493, the MBC, MRSA (NCTC 12493) came to 64 µM (≈ 167 µg/mL) and the MIC, MRSA (NCTC 12493) worked out at 64 µM (≈ 167 µg/mL). Further, the HC10 in the series with horse red blood cells stood at 256 µM. The “GM MIC Gram-Negative” value with Gram-negative bacteria was found to be 9.75 µM. Moreover, in the series on Gram-positive bacteria, the “GM MIC Gram-Positive” value amounted to 128 µM. In addition, the IC50 in series [8] came to 130 µM. In the series on E. coli (ATCC-BAA 2340) (ATCC-BAA 2340), the “MIC, Control” value is 4 µM (≈ 10.4 µg/mL); the “MIC, FBS” value was determined as 16 µM (≈ 41.7 µg/mL); the “MIC, Fe^3+” value came out at 4 µM (≈ 10.4 µg/mL); the “MIC, K^+” value was 4 µM (≈ 10.4 µg/mL). Moreover, in the series on E. coli (ATCC-BAA 2340) (ATCC-BAA 2340), the “MIC, Mg^2+” value worked out at 32 µM (≈ 83.5 µg/mL); the “MIC, NH4^+” value is 4 µM (≈ 10.4 µg/mL); the “MIC, Na^+” value is 16 µM (≈ 41.7 µg/mL). In addition, the “MIC, Ca^2+” value in the series on E. coli (ATCC-BAA 2340) (E. coli (ATCC-BAA 2340), medium with 2 mM CaCl2) stood at 128 µM (≈ 334 µg/mL).
Take `C[C@]12CCC(=O)C=C1CC[C@@H]1[C@@H]2[C@@H](O)C[C@@]2(C)[C@H]1CC[C@]2(O)C(=O)CO` [hydrocortisone]: the “TNF-α level after LPS stimulation” value in [9] is “approximately 22.3 ng/mL”.
